Reference: patent US20240182444A1, “ANTI-VIRAL COMPOUNDS” (Aligos Therapeutics, Inc., priority 2022, published 2024)
Read-outs that look alike come from different tables or passages of the source.

What was measured:
in vitro = details: human
[1] = test system: SARS-CoV-2 B.1.1.7 lineage; assay: microbe, parasite or virus in culture; assay type: cell-based; details: Severe acute respiratory syndrome coronavirus 2, 96 h; read-out: A549-dual_ACE2_TMPRSS2 (EC50)
[2] = Cytotoxicity in HeLa cells without OC43 virus; assay type: cell-based; details: human, HeLa cells (uninfected), in parallel
Experimental: (§1) The human beta-coronavirus OC43 was purchased from ATCC (Manassas, VA) and propagated using HCT-8 human colorectal epithelial cells (ATCC). HeLa human cervical epithelial cells (ATCC) were used as susceptible host cell lines and were cultured using EMEM media, supplemented with 10% fetal bovine serum (FBS), 1% (v/v) penicillin/streptomycin (P/S), 1% (v/v) HEPES and 1% (v/v) cellgro Glutagro™ supplement (all Corning, Manassas, VA) at 37° C. For the OC43 antiviral assay, 1.5×10^4 HeLa cells per well were plated in 100 μL complete media in white 96-well plates with clear bottoms at 37° C. for up to 24 h to facilitate attachment and allow cells to recover from seeding stresses. Next day, the cell culture medium was removed. Serially diluted compounds in 100 μL assay media (EMEM, 2% FBS, 1% P/S, 1% cellgro Glutagro™ supplement, 1% HEPES) were added to the cells and incubated for 4 h at 37° C. in a humidified 5% CO2 incubator. 100 μL of OC43 virus stock was diluted to a concentration known to produce optimal cytopathic effect, inducing 80-90% reduction in cell viability. 96-well plates were incubated for 6 days at 33° C.; each plate contains uninfected control wells as well as virus-infected wells that were not treated with compound. Cytotoxicity plates without the addition of OC43 virus were carried out in parallel. At the end of the incubation period, 100 μL cell culture supernatant was replaced with 100 μL cell-titer-glo reagent (Promega, Madison, WI) and incubated for at least 10 min at rt prior to measuring luminescence. Luminescence was measured on a Perkin Elmer (Waltham, MA) Envision plate reader. Antiviral % inhibition was calculated as follows: [(Compound treated cells infected sample)−(no compound infected control)]/[(Uninfected control)−(no compound infected control)]*100; Using GraphPad (San Diego, CA) prism software version 8.3.1, the antiviral dose-response plot was generated as a sigmoidal fit, log(inhibitor) vs response-variable slope (four parameters) model and the EC50 was calculated which is the predicted compound concentration corresponding to a 50% inhibition of the viral cytopathic effect.
(§2) Table 2 indicates related EC50 and CC50 values for the tested compounds ‘A’ indicates an EC50<100 nM, ‘B’ indicates an EC50 of ≥100 nM and <1000 nM, ‘C’ indicates an EC50≥1000 nM and <10000 nM and ‘D’ indicates an EC50≥10000 nM and <100000 nM. For CC50, the values are reported in micromolar (M), ‘A’ indicates a CC50≥10000 nM and ‘B’ indicates a CC50≥1 μM and <10 μM.

SARS-Cov-2 3CLpro = target: T1, SARS-Cov-2 3CLpro (Severe acute respiratory syndrome coronavirus 2, UniProt P0DTD1); assay: SARS-Cov-2 3CLpro protease assay (SAMDI-MS); assay type: biochemical
T1 construct: 3CLpro was added using a Multidrop Combi

[3] = test system: human beta-coronavirus OC43; assay: OC43 coronavirus antiviral assay in HeLa cells; assay type: cell-based; details: Betacoronavirus 1, 144 h, OC43, 6 days at 33° C., cell-titer-glo
Experimental: as §1, §2

[4] = 30 mins preincubation, duplex peptide substrates, read-out: SARS-Cov-2 (3CLpro IC50)
[5] = bound given in table footnote, read-out: SARS-Cov-2 activity (footnote of Table 1)

| Structure (SMILES) | CC50 (in vitro) [nM] | EC50 [1] [nM] | CC50 at 6 days [2] [nM] | IC50 (SARS-Cov-2 3CLpro; [4]) [nM] | EC50 [3] [nM] | IC50 (SARS-Cov-2 3CLpro; [5]) [nM] |
| --- | --- | --- | --- | --- | --- | --- |
| N#CC(NC(=O)[C@@H]1[C@@H]2[C@H](CN1C(=O)c1cc3c(F)cc(F)cc3[nH]1)[C@@H]1C=C[C@H]2C1)c1cncc2ccccc12 (stereo partly drawn) [Compound 8, (1R,2S,3S,6R,7S)—N-[cyano(isoquinolin-4-yl)methyl]-4-(4,6-difluoro-1H-indole-2-carbonyl)-4-azatricyclo[5.2.1.0^{2,6}]dec-8-ene-3-carboxamide] | > 1000 | 100 to 1000 | 1000 to 10000 | 20 to 200 | 100 to 1000 |  |
| CC(C)(C)[C@H](NC(=O)C(F)(F)F)C(=O)N1CC2(CC2)C[C@H]1C(=O)NC(C#N)c1cnn2ccccc12 (stereo partly drawn) [Compound 17, (6S)—N-(cyano(pyrazolo[1,5-a]pyridin-3-yl)methyl)-5-((S)-3,3-dimethyl-2-(2,2,2-trifluoroacetamido)butanoyl)-5-azaspiro[2.4]heptane-6-carboxamide] | > 1000 | 100 to 1000 | ≥ 10000 | 20 to 200 | 100 to 1000 |  |
| CC(C)(C)[C@H](NC(=O)C(F)(F)F)C(=O)N1C[C@@H]2[C@H]3C[C@@H]([C@@H]2[C@H]1C(=O)NC(C#N)c1cncc2c1OCCO2)[C@H](F)C3 (stereo partly shown) [Compound 27] | > 1000 | ≥ 1000 | ≥ 10000 | 20 to 200 | 1000 to 10000 |  |
| CC(C)(C)[C@H](NC(=O)C(F)(F)F)C(=O)N1C[C@H]2[C@@H]([C@H]1C(=O)NC(C#N)c1cncc3ccccc13)C2(C)C (stereo partly drawn) [Compound 11, (1R,2S,5S)—N-[cyano(isoquinolin-4-yl)methyl]-3-[(2S)-3,3-dimethyl-2-(2,2,2-trifluoroacetamido)butanoyl]-6,6-dimethyl-3-azabicyclo[3.1.0]hexane-2-carboxamide] | > 1000 | < 100 | ≥ 10000 |  | < 100 |  |
| COc1cccc2cncc(C(C#N)NC(=O)[C@@H]3[C@@H](c4ccccc4)CCN3C(=O)[C@@H](NC(=O)C(F)(F)F)C(C)(C)C)c12 (stereo partly shown) [Compound 30] | > 1000 | ≥ 1000 | ≥ 10000 | 20 to 200 | 1000 to 10000 |  |
| COc1cccc2cncc([C@H](C#N)NC(=O)[C@@H]3[C@@H]4[C@H](CN3C(=O)[C@@H](NC(=O)C(F)(F)F)C(C)(C)C)[C@H]3C[C@@H]4[C@H](F)C3)c12 [Compound 29] | > 1000 | < 100 | ≥ 10000 | 20 to 200 | 100 to 1000 |  |
| CC(C)(C)[C@H](NC(=O)C(F)(F)F)C(=O)N1C[C@@H]2[C@@H]3C[C@H]([C@@H]2[C@H]1C(=O)NC(C#N)c1cncc(-c2ccccc2)c1)[C@H](F)C3 (stereo partly shown) [Compound 14] | > 1000 | 100 to 1000 | ≥ 10000 |  | 10000 to 100000 |  |
| COc1cccn2ncc(C(C#N)NC(=O)[C@@H]3[C@@H]4[C@H](CN3C(=O)[C@@H](NC(=O)C(F)(F)F)C(C)(C)C)[C@H]3C[C@@H]4[C@H](F)C3)c12 (stereo partly shown) [Compound 19] | > 1000 | < 100 | ≥ 10000 | < 20 | 100 to 1000 |  |
| CC(C)(C)[C@H](NC(=O)C(F)(F)F)C(=O)N1C[C@@H]2[C@H]3C[C@@H]([C@@H]2[C@H]1C(=O)NC(C#N)c1cncn1-c1ccccc1)[C@H](F)C3 (stereo partly shown) [Compound 23] | > 1000 | ≥ 1000 |  | 20 to 200 |  | > 500 |
| N#CC(NC(=O)C1[C@@H]2[C@H](CN1C(=O)c1cnn(-c3ccccc3C(F)(F)F)c1)[C@H]1C[C@@H]2[C@H](F)C1)c1cncc2ccccc12 (stereo partly drawn) [Compound 12, (1S,2R,3S,6R,7S,9R)—N-[cyano(isoquinolin-4-yl)methyl]-9-fluoro-4-{1-[2-(trifluoromethyl)phenyl]pyrazole-4-carbonyl}-4-azatricyclo[5.2.1.0^{2,6}]decane-3-carboxamide] | > 1000 | ≥ 1000 |  | 20 to 200 |  |  |
| CC(C)(C)[C@H](NC(=O)C(F)(F)F)C(=O)N1C[C@@H]2[C@@H]3CC([C@@H]2[C@H]1C(=O)NC(C#N)c1cnn(-c2ccccc2)c1)[C@H](F)C3 (stereo partly shown) [Compound 13] |  |  |  | 200 to 2000 |  |  |
| CC(C)(C)[C@H](NC(=O)C(F)(F)F)C(=O)N1C[C@@H]2[C@@H]3CC([C@@H]2[C@H]1C(=O)NC(C#N)c1cncc(-c2ccccc2)c1)[C@H](F)C3 (stereo partly shown) [Compound 14] |  |  |  | < 20 |  |  |
| C#CC(NC(=O)[C@@H]1[C@@H]2[C@H](CN1C(=O)[C@@H](NC(=O)C(F)(F)F)C(C)(C)C)[C@H]1C[C@@H]2[C@H](F)C1)c1cncc2ccccc12 (stereo partly drawn) [Compound 32, (1S,3aR,4S,6R,7S,7aR)-2-((S)-3,3-dimethyl-2-(2,2,2-trifluoroacetamido)butanoyl)-6-fluoro-N-(1-(isoquinolin-4-yl)prop-2-yn-1-yl)octahydro-1H-4,7-methanoisoindole-1-carboxamide] |  |  |  | 20 to 200 |  |  |
| CC(C)(C)[C@H](NC(=O)C(F)(F)F)C(=O)N1C[C@@H]2[C@H]3C[C@@H]([C@@H]2[C@H]1C(=O)NC(C#N)c1cncc(Cl)c1Cl)[C@H](F)C3 (stereo partly drawn) [Compound 10, (1S,2R,3S,6R,7S,9R)—N-[cyano(4,5-dichloropyridin-3-yl)methyl]-4-[(2S)-3,3-dimethyl-2-(2,2,2-trifluoroacetamido)butanoyl]-9-fluoro-4-azatricyclo[5.2.1.0^{2,6}]decane-3-carboxamide] | > 1000 | ≥ 1000 | ≥ 10000 | < 20 | 100 to 1000 |  |
| CC(C)(C)[C@H](NC(=O)C(F)(F)F)C(=O)N1C[C@@H]2[C@H]3C[C@@H]([C@@H]2[C@H]1C(=O)NC1(C#N)CCCc2ccncc21)[C@H](F)C3 (stereo partly shown) [Compound 31] | > 1000 | ≥ 1000 | ≥ 10000 | 2000 to 20000 | 1000 to 10000 | > 2000 |
| CC(C)(C)[C@H](NC(=O)C(F)(F)F)C(=O)N1CCC2(CC2)C[C@H]1C(=O)NC(C#N)c1cnn2ccccc12 (stereo partly shown) [Compound 18] | > 1000 | 100 to 1000 | ≥ 10000 | < 20 | 100 to 1000 |  |
| CC(C)(C)[C@H](NC(=O)C(F)(F)F)C(=O)N1C[C@@H]2[C@H]3C[C@@H]([C@@H]2[C@H]1C(=O)NC(C#N)c1cnn2ccccc12)[C@H](F)C3 (stereo partly shown) [Compound 25] | > 1000 | 100 to 1000 | ≥ 10000 | < 20 | 100 to 1000 |  |
| CC(C)(C)[C@H](NC(=O)C(F)(F)F)C(=O)N1C[C@@H]2[C@@H]3C[C@H]([C@@H]2[C@H]1C(=O)NC(C#N)c1cnn(-c2ccccc2)c1)[C@H](F)C3 (stereo partly shown) [Compound 13] | > 1000 | ≥ 1000 |  |  |  |  |
| N#CC(NC(=O)[C@@H]1[C@@H]2[C@H](CN1C(=O)[C@H](CC1CC1)NC(=O)C(F)(F)F)[C@H]1C[C@@H]2[C@H](F)C1)c1cnn2ccccc12 (stereo partly shown) [Compound 24] | > 1000 | 100 to 1000 | ≥ 10000 | < 20 | 100 to 1000 |  |
| Cc1ncc2ccccc2c1C(C#N)NC(=O)[C@@H]1[C@@H]2[C@H](CN1C(=O)[C@@H](NC(=O)C(F)(F)F)C(C)(C)C)[C@@H]1C=C[C@H]2C1 (stereo partly shown) [Compound 21] | > 1000 | ≥ 1000 |  | 2000 to 20000 |  |  |
| CC(C)(C)[C@H](NC(=O)C(F)(F)F)C(=O)N1C[C@H]2[C@@H]([C@H]1C(=O)NC(C#N)c1cccc3ccccc13)[C@H]1C=C[C@@H]2C1 (stereo partly shown) [Compound 16] | > 1000 | ≥ 1000 |  | 200 to 2000 |  |  |
| CC(C)(C)[C@H](NC(=O)C(F)(F)F)C(=O)N1C[C@H]2[C@@H]([C@H]1C(=O)NC(C#N)c1nc[nH]n1)[C@H]1C=C[C@@H]2C1 (stereo partly drawn) [Compound 4, (1R,2S,3S,6R,7S)—N-[cyano(1H-1,2,4-triazol-3-yl)methyl]-4-[(2S)-3,3-dimethyl-2-(2,2,2-trifluoroacetamido)butanoyl]-4-azatricyclo[5.2.1.0^{2,6}]dec-8-ene-3-carboxamide] |  |  | ≥ 10000 | 200 to 2000 | 1000 to 10000 |  |
